Experimental data published in paper PMC11645267, “Novel pharmacologic inhibition of lysine-specific demethylase 1 as a potential therapeutic for glioblastoma” (Cancer Gene Therapy, 2024).

How the values were obtained:
LSD2 = target: T1, LSD2 (Homo sapiens, UniProt Q8NB78); set-up: method as in PMID 32166890; conditions: cited from earlier work
T1 sequence (Q8NB78 1-822): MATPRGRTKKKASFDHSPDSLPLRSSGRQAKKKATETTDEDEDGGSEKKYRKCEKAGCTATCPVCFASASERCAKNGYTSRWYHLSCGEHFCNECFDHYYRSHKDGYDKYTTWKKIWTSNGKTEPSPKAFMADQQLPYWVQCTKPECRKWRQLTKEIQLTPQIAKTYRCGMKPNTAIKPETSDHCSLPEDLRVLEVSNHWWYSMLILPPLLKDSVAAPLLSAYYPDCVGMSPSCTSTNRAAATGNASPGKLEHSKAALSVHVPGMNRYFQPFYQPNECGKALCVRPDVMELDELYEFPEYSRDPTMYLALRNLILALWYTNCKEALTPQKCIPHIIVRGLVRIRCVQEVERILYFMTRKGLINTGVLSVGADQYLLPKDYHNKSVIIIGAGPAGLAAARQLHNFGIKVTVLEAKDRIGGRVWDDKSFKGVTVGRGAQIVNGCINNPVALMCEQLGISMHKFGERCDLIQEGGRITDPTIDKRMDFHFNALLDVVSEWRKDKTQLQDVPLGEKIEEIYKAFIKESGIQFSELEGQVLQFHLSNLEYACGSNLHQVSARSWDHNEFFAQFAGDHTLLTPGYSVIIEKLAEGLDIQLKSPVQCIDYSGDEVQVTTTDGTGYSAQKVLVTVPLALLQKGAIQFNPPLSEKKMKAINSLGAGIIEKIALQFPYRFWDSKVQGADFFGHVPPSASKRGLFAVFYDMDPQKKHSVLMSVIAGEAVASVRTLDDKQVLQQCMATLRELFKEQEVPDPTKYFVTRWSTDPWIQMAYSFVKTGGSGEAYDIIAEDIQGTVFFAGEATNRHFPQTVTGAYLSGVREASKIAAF

MAO-B = target: T2, MAO-B (Homo sapiens, UniProt P27338); conditions: cited from earlier work
T2 sequence (P27338 1-520): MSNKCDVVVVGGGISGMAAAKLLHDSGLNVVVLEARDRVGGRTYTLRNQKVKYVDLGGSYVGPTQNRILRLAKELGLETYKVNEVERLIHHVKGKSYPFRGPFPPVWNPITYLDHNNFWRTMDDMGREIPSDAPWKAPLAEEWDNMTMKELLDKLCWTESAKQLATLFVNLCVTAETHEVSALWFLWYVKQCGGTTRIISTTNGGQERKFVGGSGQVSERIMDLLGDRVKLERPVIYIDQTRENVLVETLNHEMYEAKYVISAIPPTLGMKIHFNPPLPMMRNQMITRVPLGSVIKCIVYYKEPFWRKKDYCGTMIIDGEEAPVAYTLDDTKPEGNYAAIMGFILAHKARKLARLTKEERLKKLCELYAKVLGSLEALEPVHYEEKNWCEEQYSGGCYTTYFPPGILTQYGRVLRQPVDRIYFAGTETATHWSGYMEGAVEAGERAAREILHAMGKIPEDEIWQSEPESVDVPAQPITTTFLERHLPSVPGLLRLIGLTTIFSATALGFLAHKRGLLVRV

MAO-A = target: T3, MAO-A (Homo sapiens, UniProt P21397); conditions: cited from earlier work
T3 sequence (P21397 1-527): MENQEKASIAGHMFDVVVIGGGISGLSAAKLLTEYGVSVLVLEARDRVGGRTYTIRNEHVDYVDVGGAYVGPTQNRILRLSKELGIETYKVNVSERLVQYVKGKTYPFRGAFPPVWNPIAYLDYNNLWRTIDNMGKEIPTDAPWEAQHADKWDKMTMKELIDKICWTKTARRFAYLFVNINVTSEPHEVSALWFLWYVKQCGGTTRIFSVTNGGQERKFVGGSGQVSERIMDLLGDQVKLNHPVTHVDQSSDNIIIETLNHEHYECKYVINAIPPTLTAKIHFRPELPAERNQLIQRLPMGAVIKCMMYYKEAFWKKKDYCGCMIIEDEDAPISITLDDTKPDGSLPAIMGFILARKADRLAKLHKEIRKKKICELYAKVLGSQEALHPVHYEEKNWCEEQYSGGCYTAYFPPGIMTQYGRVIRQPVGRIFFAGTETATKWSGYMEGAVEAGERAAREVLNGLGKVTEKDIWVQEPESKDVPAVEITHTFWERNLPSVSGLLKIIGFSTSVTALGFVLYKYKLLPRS

Onda10 = assay: Cell proliferation assay (Cell Counting Kit 8); format: cell-based; conditions: 96 h; Onda10 (grade III glioma), 4 days; read-out: Growth inhibitory IC50 (GI50)
Description: (§1) Supplementary materials and methods […]
(§2) Cell lines and culture conditions
(§3) Glioblastoma cell line, LN229, was obtained from the American Type Culture Collection (ATCC, Manassas, VA, USA). Normal fibroblast cell lines TIG3 and WI-38, TM31 (low grade glioma) were obtained from the RIKEN Bioresource Research Center (Tsukuba, Japan). Onda10 and KINGS1 (low grade glioma) cell lines were obtained from the Japanese Collection of Research Bioresources (Ibaraki, Japan). F3 is utilized as a neural stem cell line{Kim, 2004 #1412}{Natsume, 2013 #1009}. All cells were maintained in DMEM medium (Wako, Osaka, Japan) containing 5% fetal bovine serum (FBS, Thermo Fisher Scientific, Waltham, MA, USA) and 1% penicillin-streptomycin (Wako). […]
(§4) For the cell proliferation assay, cells at a density of 1 × 10^5 cells per well were seeded before treatment with LSD1 inhibitors. Cell proliferation was measured after 4 days using a Cell Counting Kit 8 (Dojindo, Kumamoto, Japan) according to the manufacturer ’s […]
(§5) instructions. For GSC cells, the CellTiter-Glo 3D Viability Assay (Promega, Madison, WI, USA) was used to measure the living cells. […]

LN229 = assay: Cell proliferation assay (Cell Counting Kit 8); format: cell-based; conditions: Homo sapiens, LN-229, 96 h; LN229 (GBM cell line), 4 days; read-out: Growth inhibitory IC50 (GI50)
Description: as §1, §2, §3, §4, §5

TM31 = assay: Cell proliferation assay (Cell Counting Kit 8); format: cell-based; conditions: 96 h; TM31 (grade III glioma), 4 days; read-out: Growth inhibitory IC50 (GI50)
Description: as §1, §2, §3, §4, §5

WI38 = assay: Cell proliferation assay (Cell Counting Kit 8); format: cell-based; conditions: Homo sapiens, WI-38, 96 h; WI38 (normal fibroblast), 4 days; read-out: Growth inhibitory IC50 (GI50)
Description: as §1, §2, §3, §4, §5

KINGS1 = assay: Cell proliferation assay (Cell Counting Kit 8); format: cell-based; conditions: Homo sapiens, KINGS-1, 96 h; KINGS1 (grade III glioma), 4 days; read-out: Growth inhibitory IC50 (GI50)
Description: as §1, §2, §3, §4, §5

TIG3 = assay: Cell proliferation assay (Cell Counting Kit 8); format: cell-based; conditions: Homo sapiens, TIG-3, 96 h; TIG3 (normal fibroblast), 4 days; read-out: Growth inhibitory IC50 (GI50)
Description: as §1, §2, §3, §4, §5

F3 = assay: Cell proliferation assay (Cell Counting Kit 8); format: cell-based; conditions: 96 h; F3 (normal neural stem cell line), 4 days; read-out: Growth inhibitory IC50 (GI50)
Description: as §1, §2, §3, §4, §5

GSC316 = assay: Cell proliferation assay (CellTiter-Glo 3D); format: cell-based; conditions: GSC316, 96 h; read-out: Growth inhibitory IC50 (GI50)
Procedure: as §1
(§6) Cell lines and culture conditions […]
(§7) 2013 #1009}{Katsushima, 2016 #1156}. GSC cells were cultured in Neurobasal Medium (Life Technologies, Carlsbad, CA, USA) containing N2 and B27 supplements (Life Technologies) along with human recombinant basic fibroblast growth factor and epidermal growth factor (20 ng/ml each; R&D Systems, Minneapolis, MN, USA). Cells were cultured at 37°C in a humidified incubator with 5% CO2.
as §4, §5

GSC1228 = assay: Cell proliferation assay (CellTiter-Glo 3D); format: cell-based; conditions: GSC1228, 96 h; read-out: Growth inhibitory IC50 (GI50)
Procedure: as §1, §6, §7, §4, §5

GSC222 = assay: Cell proliferation assay (CellTiter-Glo 3D); format: cell-based; conditions: GSC222, 96 h; read-out: Growth inhibitory IC50 (GI50)
Procedure: as §1, §6, §7, §4, §5

CN1CCN(C(=O)CNC2CC2c2cc(F)cc(F)c2OCc2ccccc2)CC1 (stereo not drawn) [S2157]
Ki (LSD2): > 250 µM | Ki (MAO-B): > 250 µM | Ki (MAO-A): > 250 µM | IC50 (Onda10): > 40 µM | IC50 (LN229): > 40 µM | IC50 (TM31): 27 µM | IC50 (WI38): > 40 µM | IC50 (KINGS1): > 40 µM | IC50 (TIG3): 33.3 µM | IC50 (F3): 36.5 µM | IC50 (GSC316): > 40 µM | IC50 (GSC1228): 19.7 µM | IC50 (GSC222): > 40 µM

NC1CC1c1cc(F)cc(F)c1OCc1ccccc1 (stereo not drawn) [S2101]
Ki (LSD2): > 250 µM | IC50 (Onda10): 25 µM | IC50 (LN229): 12 µM | IC50 (TM31): 6.9 µM | IC50 (WI38): > 40 µM | IC50 (KINGS1): 19 µM | IC50 (TIG3): > 40 µM | IC50 (F3): 26 µM | IC50 (GSC316): > 40 µM | IC50 (GSC1228): > 40 µM | IC50 (GSC222): > 40 µM
